Experimental data taken from patent publication US7989483B2, “4-heteroarylimidazole-2-thione tyrosinase inhibitors and pharmaceutical/cosmetic applications thereof” (Galderma Research & Development, priority 2007, dated 2011).

Biological target: T1, tyrosinase (Mus musculus, UniProt P11344)
T1 construct: the supernatant obtained constitutes the cell lysate used as tyrosinase source in the enzymatic assay; endogenous in cells; host or cells: B16F1 murine melanoma cells (alpha-MSH stimulated), detergent lysate supernatant
T1 sequence (P11344 19-533): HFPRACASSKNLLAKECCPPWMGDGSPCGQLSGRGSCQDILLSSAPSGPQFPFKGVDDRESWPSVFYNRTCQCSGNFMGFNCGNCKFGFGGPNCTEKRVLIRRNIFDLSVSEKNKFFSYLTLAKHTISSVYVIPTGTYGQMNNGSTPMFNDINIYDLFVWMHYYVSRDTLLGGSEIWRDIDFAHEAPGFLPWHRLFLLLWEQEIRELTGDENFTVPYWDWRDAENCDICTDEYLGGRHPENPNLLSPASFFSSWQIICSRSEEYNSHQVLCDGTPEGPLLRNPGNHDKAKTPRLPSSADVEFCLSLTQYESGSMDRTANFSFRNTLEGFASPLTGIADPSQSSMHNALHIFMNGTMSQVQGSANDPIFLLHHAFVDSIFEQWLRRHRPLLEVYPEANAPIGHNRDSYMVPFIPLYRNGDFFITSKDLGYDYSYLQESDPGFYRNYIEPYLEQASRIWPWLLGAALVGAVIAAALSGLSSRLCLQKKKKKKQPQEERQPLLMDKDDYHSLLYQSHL
Assay: Tyrosinase activity inhibition assay (B16F1 cell lysate, L-tyrosine substrate, MBTH, 520 nm)
Assay type: biochemical
Conditions: lysate of B16F1 cells (murine melanoma line), L-DOPA cofactor, 37° C., reading at 520 nm after 6 hours, read-out: Tyrosine hydroxylase/Dopa oxidase IC50
Method: The activity of the inhibitors is measured starting from a lysate of B16F1 cells (murine melanoma line). In the presence of the L-tyrosine substrate, the tyrosinase present in these cells catalyses the hydroxylation of L-tyrosine to give L-DOPA and then the oxidation of the L-DOPA to give dopaquinone. In the presence of MBTH (3-methyl-2-benzothiazolinone hydrazone), the dopaquinone is trapped so as to form a pink complex which absorbs at 520 nm.
The B16F1 cells are cultured in DMEM medium+10% foetal calf serum+10^−9 M α-MSH for 4 days at 37° C. under 7% CO2. They are treated with trypsin, washed with PBS, counted and pelleted. The pellet is taken up at 10^7 cells/ml in lysis buffer (10 mM sodium phosphate, pH 6.8-1% Igepal) and the suspension is treated with ultrasound for 10 seconds. After centrifugation for 30 minutes at 4000 rpm, the supernatant obtained constitutes the cell lysate used as tyrosinase source in the enzymatic assay.
The assays are carried out in duplicate in 384-well plates in a total volume of 50 μl. Each well contains: […]
The plate is incubated at 37° C. and a spectrophotometric reading is carried out at 520 nm after incubating for 6 hours. To avoid any possible absorption of the products, the system uses corrected absorbance (absorbance at time 6 h—absorbance at time zero). […]

SMILES | IC50 [nM]
Cc1ccc(-c2c[nH]c(=S)[nH]2)s1 [Compound 3, 4-(5-methylthiophen-2-yl)-1,3-dihydroimidazole-2-thione] | 300
Cc1csc(-c2c[nH]c(=S)[nH]2)c1 [Compound 4, 4-(4-methylthiophen-2-yl)-1,3-dihydro-imidazole-2-thione] | 100
